The values that follow come from patent publication US9486456B2, “Treatment of esophageal motility disorder using sepiapterin, tetrahydrobiopterin and derivatives thereof” (The Board of Regents of the University of Texas System, priority 2006, dated 2016).

Each structure is given as a SMILES string. Read-outs that look alike come from different tables or passages of the source.

One experiment concerns female rats. The experiment in a line: Solid gastric emptying studies. In kind it is in vivo, rat. As to conditions: for Effect on gastric emptying for solids: OVX female rats, 21 day release pellets E2 2 mg or P4 20 mg per kg. The procedure:
In addition, using the similar gastric emptying protocol, accelerated gastric emptying was observed instead of delayed gastric emptying in spontaneous diabetic female but not in male diabetic animals (101).
According to the protocol, animals were fasted over night (provide water). On the next day, known amount of food was fed to the animals for 3 h. At the end of 3 h collected the remaining food from the cage and calculated the amount of food intake. Then fast the animals for 4 hrs without food and water. At the end of fast, animals were euthanized, collected the gastric tissue and measured the weight of the whole stomach. Then removed the food contents by opening the stomach and measured the empty stomach weight. The rate of gastric emptying was calculated according to the following equation: gastric emptying (% in 4 h)=(1−gastric content food intake^−1)×100.

Another experiment concerns nNOSalpha protein. Briefly: nNOSalpha protein expression, Western blot. In kind it is in vivo, rat. As to conditions: for nNOSalpha protein level: diabetic female rat gastric antrum, sepiapterin 10 days or BH4 2 weeks, 20 mg kg^−1 per day. The procedure: nNOSa protein was quantified in gastric antrum homogenates from all groups using standard western blot analysis, as described in our previous study (94). Proteins were measured by Bio-Rad protein assay (Bio-Rad, Hercules, Calif.) and 30 μg protein was separated by 6% SDS polyacrylamide gel electrophoresis (SDS-PAGE). The membrane was immunoblotted with polyclonal nNOSa primary antibody (Zymed Laboratories Inc., CA) and anti-rabbit IgG conjugated with horseradish peroxidase (Sigma Chemical, St. Louis, Mo.) as secondary antibody. Binding of antibodies to the blots was detected with enhanced chemiluminescence system (ECL, Amersham Pharmacia Biotech, Piscataway, N.J.) following manufacturer's instructions. Stripped blots were re-probed with g-tubulin specific polyclonal antibodies (Sigma Chemical, St. Louis, Mo.) to enable normalization of signals between samples. Band intensities were analyzed using Bio-Rad Gel Doc (Bio-Rad, Hercules, Calif.).
A general note: In western blotting, separated proteins are transferred to a membrane and probed.

The test system of another experiment is gastric tissues. Briefly: Nitrergic relaxation of gastric tissues after in vitro incubation (organ bath). Details: species or system rat.
The test system of a further experiment is rats. Briefly: Intragastric (antrum) pressure by ambulatory telemetry. To be noted: L-NAME 200 mg/day/kg s.c. osmotic mini-pump, 4 days. In kind it is in vivo, rat. The method, then:
The intragastric antrum pressure (IGAP) was measured in normal and diabetic male (FIG. 3A) and female (FIG. 3B) rats. The transducer pressure catheter was introduced into the gastric antrum cavity 5 mm proximal to the pylorus to record IGAP (mmHg×sec). After recording the baseline IGAP, N^G-nitro-L-arginine methyl ester (L-NAME, 200 mg/day/kg body weight (BW)/rat) was administered subcutaneously in the same rats by osmotic mini-pumps (Alza, Palo Alto, Calif., model 2ML1 with a pumping rate of 10 μl/hour) for 4 days. All subsequent studies were performed 1 week after surgery in overnight fasted rats that were awake and in a free-moving state. Pressure recordings were performed at least 2-3 hours between 9-12 am. Bilateral ovariectomy was performed as reported previously. Dietary BH4 (25 mg/day/kg body weight (BE)/rat). *p<0.05. ANOVA.
Intragastric pressure (IGP) was measured using ambulatory telemetric device. […]
Dietary BH4 (25 mg/kg b.w/rat/day) was supplemented for female rats for 12 weeks beginning from day 2 after diabetic induction. Intragastric pressure (IGP) was measured in female control, diabetic and diabetic+BH4 treated rats. […] In another experiment, diabetic females were treated for 3 weeks with BH4 and nNOS alpha protein expression was measured in treated and untreated gastric tissues.

In a further experiment the test system is gastric muscle strips. Briefly: EFS-induced nitrergic (NANC) relaxation of gastric muscle strips after in vivo treatment (organ bath). The arrangement: species or system rat. The procedure:
Electric field stimulation (EFS)-induced NANC relaxation was studied in circular gastric antrum muscle strips. Muscle strips were tied with silk thread at both ends and were mounted in 10-ml water-jacketed organ baths containing Krebs buffer (11 mM glucose) at 37° C. and continuously bubbled with 95% O2-5% CO2 (Radnoti Glass Technology, Monrovia, Calif.). Tension for each muscle strip was monitored with an isometric force transducer and analyzed by a digital recording system (Biopac Systems, Santa Barbara, Calif.). A passive tension equal to 2 g was applied on each strip in the 1 h equilibration period through an incremental increase (0.5 g, four times, at 15 min interval). Gastric antrum muscle strips were exposed to atropine, phentolamine and propranolol (10 μmol each) in bath solution for 1 h to block cholinergic and adrenergic responses. 5-hydroxytryptamine (5-HT; 100 μM) pre-contracted strips were exposed to EFS (90 V, 2 Hz, 1-ms pulse for duration of 1 min) to elicit NANC relaxation.
To investigate the in vivo effect of methotrexate (MTX) on EFS induced nitrergic relaxation; a group of animals were supplemented with MTX (inhibitor of dihydro folate reductase, DHFR) 3.75 mg kg^−1 body wt. per twice a day for 4 days. Gastric strips from control animals and MTX treated animals were incubated in organ bath and nitrergic relaxation was measured by EFS. At the end of each experiment, the muscle strip was blotted dry with filter paper and weighed. Comparisons between groups were performed by measuring the area under the curve (AUC mg^−1 tissue) of the EFS-induced relaxation (AUCR) for 1 min and the baseline for 1 min (AUCB) according to the formula (AUCR−AUCB) weight of tissue (mg)^−1=AUC mg of tissue^−1.

The subject of experiment [1] is gastric antrum muscle strip. The experiment in a line: In vitro NO release from gastric antrum strips (total nitrite). Details: species or system rat. As to conditions: 48 h incubation. The method, then:
Animals from control groups were killed by CO2 asphyxiation, the abdominal cavity opened, and the stomach dissected and transferred in chilled oxygenated Krebs bicarbonate solution of the following composition (in mmol): 118.0 NaCl, 4.7 KCl, 25.0 NaHCO3, 1.5 CaCl2, 1.2 MgSO4, 1.2 KH2PO4, and 11.5 glucose (pH 7.4). Antrum tissue was harvested and cut into mucosa-free strips and were cultured for 48 h (37° C., 5% CO2) in […] of phenol red-free DMEM supplemented with NB27 (2%) and antibiotics (1%) in the presence of normal glucose (control), control+MTX (100 μM), control+MTX+SEP (100 μM, 100 μM). On completion of incubation, DMEM ([…]) was collected and stored at −80° C. for analysis of NO released in medium during incubation period. NO released in the medium was analyzed as total nitrite (metabolic byproduct of NO) following the protocol supplied with a commercially available kit (EMD Chemicals, Gibbstown, N.J.).

The test system of another experiment is nNOSalpha. The experiment in a line: nNOSalpha dimerization, LT-SDS-PAGE, after in vivo treatment. Details: species or system rat. As to conditions: for nNOSalpha dimmer/monomer level: diabetic female rat gastric antrum, sepiapterin 10 days or BH4 2 weeks, 20 mg kg^−1 per day. The procedure: Levels of nNOSa monomer and dimer were quantified by western blotting via Low temperature (LT)-PAGE in gastric antrum homogenates as described previously (94). LT-SDS-PAGE was performed on ice. The low-temperature process was used to identify nNOS dimers and monomers in the native state as low temperature is known to prevent monomerization of nNOS dimmers. For the low-temperature processing, 30 μg of protein in standard Laemmli buffer at 4° C. was used for SDS-PAGE. The mixture was incubated at 0° C. for 30 min before LT-SDS-PAGE using a 6% separating gel. All gels and buffers were pre-equilibrated to 4° C. prior to electrophoresis and the buffer tank placed in an ice-bath during electrophoresis to maintain the gel temperature below 15° C. A polyclonal antibody specific to nNOSa (Zymed Laboratories) and anti-rabbit IgG conjugated with horseradish peroxidase (Sigma Chemical, St. Louis, Mo.) were used as the primary and secondary antibodies, respectively.

Experiment [2] can be described thus: Body weight in control and STZ-diabetic female rats. To be noted: STZ-diabetic female rats + SEP 20 mg kg^−1 day^−1, 10 days. Format: in vivo, rat. The procedure: (§1) Diabetes was induced in overnight fasted animals by a single intraperitoneal injection of streptozotocin (STZ, 55 mg kg^−1) (Sigma Chemical, St. Louis, Mo.) prepared in 9 mmol citrate buffer, pH 4.0. Control animals were injected with the vehicle (9 mmol citrate buffer, pH 4.0) (94). Blood glucose levels were examined in overnight fasted animals, 48 h post STZ injection. […] Blood glucose levels in vehicle-treated overnight fasting rats ranged between 80-95 mg dl^−1. Both control and diabetic female rats were selected during the diestrus phase of the estrous cycle using vaginal smear testing method [by measuring vaginal cytology (90-100% of leucocytes) under microscope] for further experiments. As reported earlier, 60-70% of diabetic rats show a persistent diestrous stage of the estrous cycle (data not shown) (95-96).
(§2) At the end of 7th week of diabetes induction, animals were divided into four groups, i.e. control female rats (C), diabetic female rats (DB), BH4 supplemented diabetic female rats (DB+BH4) and SEP supplemented diabetic female rats (DB+SEP). DB+BH4 were provided with BH4 pellets (20 mg kg^−1 body wt day^−1) for next 2 weeks. […] Tissue samples were snap frozen in liquid nitrogen and stored at −80° C. until analyzed. BH4 or SEP-pellets used in this study were prepared by compressing (Schircks Laboratories, Switzerland) with rodent chow and stored at −20° C. until used. […]

Experiment [3] in a line: Fasting blood glucose in control and STZ-diabetic female rats. In kind it is in vivo, rat. The method, then: as §1, §2
Setting [4] is: healthy female rats, MTX 3.75 mg kg^−1 i.p. twice a day, 4 days.
Where [5] appears, read: diabetic female rats + dietary sepiapterin 20 mg kg^−1, 10 days.

Consider `C[C@]12CC[C@@H]3c4ccc(O)cc4CC[C@H]3[C@@H]1CC[C@@H]2O` [E2, estradiol-17beta], for which, in the experiment with female rats, the “Effect on gastric emptying for solids” value is listed as “significantly delayed”. In addition, the “Effect on delayed solid gastric emptying” value in the experiment on female rats (diabetic female rats, E2 2 mg/kg, 3 weeks) is reported as “significantly restored”. Also, the “Effect on reduced nNOSalpha protein expression” value with nNOSalpha protein (diabetic female rat gastric tissues, E2 2 mg/kg 21 day pellet) is “significantly restored”.
For the compound `COC(=O)[C@@H](N)CCCNC(=N)N[N+](=O)[O-]` [L-NAME, N^G-nitro-L-arginine methyl ester], in the experiment with gastric tissues (preincubation L-NAME 10^−4M, FC and FD groups, 2 Hz), the “Effect on nitrergic relaxation” value was “significant inhibition”. Besides, the figures for the “Effect on IGAP” value in the experiment with rats (female rats) and in the experiment on rats (male rats) were “significantly elevated” and “decreased”, respectively.
On to `CN(Cc1cnc2nc(N)nc(N)c2n1)c1ccc(C(=O)N[C@@H](CCC(=O)O)C(=O)O)cc1` [MTX, methotrexate], for which, in the experiment with gastric muscle strips (setting [4]), the “nitrergic relaxation, antrum, EFS 2 Hz” value was −0.08±0.04 AUC mg^−1 tissue; the “nitrergic relaxation, fundus, EFS 2 Hz” value is on record as −0.17±0.076 AUC mg^−1 tissue; the “nitrergic relaxation, pylorus, EFS 2 Hz” value was −0.13±0.05 AUC mg^−1 tissue. The compound also had an NO release in experiment [1] (MTX 100 μM) of 0.73±0.15. Moreover, the nNOSalpha dimer/monomer ratio in the experiment with nNOSalpha (female rat gastric antrum, MTX 3.75 mg kg^−1 twice a day, 4 days) came out at 0.2±0.04.
With `CC(=O)[C@H]1CC[C@H]2[C@@H]3CCC4=CC(=O)CC[C@]4(C)[C@H]3CC[C@]12C` [P4, progesterone], the “Effect on gastric emptying for solids” value with female rats is reported as “not”.
Consider `NC1=N[C@H](O)[C@H]2[C@H]3O[C@]4(O)O[C@@H]([C@@H](O)[C@@]2(N1)[C@@H]4O)[C@]3(O)CO` [TTX, tetrodotoxin], for which the “Effect on nitrergic relaxation” value with gastric tissues is given as “abolished”.
`C[C@H](O)C(=O)C1=Nc2c(nc(N)[nH]c2=O)NC1` [sepiapterin]: the “Body Weight” value in experiment [2] and in experiment [2] (listed as SEP) was 188 ± 4.3 g each time. The “Blood Glucose” value in experiment [3] (STZ-diabetic female rats + SEP, fasting) was 494.5 ± 13.96 mg/dL. In [3] (both control and diabetic female rats), the “Effect on blood glucose levels” value is given as “unchanged”. Further, the “solid gastric emptying (% in 4 h)” value with female rats (control female rats + dietary sepiapterin 20 mg kg^−1, 10 days) was determined as 74±4 % in 4 h; with female rats (setting [5]) it was 67.0±8.2 % in 4 h. Also, the figures for the “nitrergic relaxation, gastric antrum, EFS 2 Hz” value with gastric muscle strips (control female rats + sepiapterin) and in the experiment on gastric muscle strips (setting [5]) were −0.51±0.06 AUC mg^−1 tissue and −0.35±0.03 AUC mg^−1 tissue, respectively. In experiment [1] (MTX 100 μM + SEP 100 μM), the NO release is 1.02±0.19. Besides, the “Change in nNOSalpha protein expression” value in the experiment on nNOSalpha protein (control female rat gastric antrum, BH4 or sepiapterin) is “no change”. The same compound had a nNOSalpha protein level in the experiment on nNOSalpha protein of 0.88±0.15. Also, in the experiment with nNOSalpha, the nNOSalpha dimmer/monomer level was 0.64±0.07.
Turning to `C[C@H](O)[C@H](O)[C@H]1CNc2nc(N)[nH]c(=O)c2N1` [tetrahydrobiopterin], the nNOSalpha protein level with nNOSalpha protein was found to be 0.42±0.05. Also, the nNOSalpha dimmer/monomer level with nNOSalpha worked out at 0.36±0.11.
